Read-outs that look alike come from different tables or passages of the source.
Target: T1, BTK-WT (Homo sapiens, UniProt Q06187)
T1 construct: purified from insect cells as a full-length construct containing an N-terminal 6X-His tag; His6 (N); made in house; host or cells: insect cells (baculovirus Sf21 in Method B)
Assay: Btk in vitro inhibitory activity (one of Method A TR-FRET, Method B electrophoretic mobility shift, Method C radiometric filter binding)
Type: biochemical
Details: read-out: IC50 BTK-WT

T1 sequence (Q06187 whole entry): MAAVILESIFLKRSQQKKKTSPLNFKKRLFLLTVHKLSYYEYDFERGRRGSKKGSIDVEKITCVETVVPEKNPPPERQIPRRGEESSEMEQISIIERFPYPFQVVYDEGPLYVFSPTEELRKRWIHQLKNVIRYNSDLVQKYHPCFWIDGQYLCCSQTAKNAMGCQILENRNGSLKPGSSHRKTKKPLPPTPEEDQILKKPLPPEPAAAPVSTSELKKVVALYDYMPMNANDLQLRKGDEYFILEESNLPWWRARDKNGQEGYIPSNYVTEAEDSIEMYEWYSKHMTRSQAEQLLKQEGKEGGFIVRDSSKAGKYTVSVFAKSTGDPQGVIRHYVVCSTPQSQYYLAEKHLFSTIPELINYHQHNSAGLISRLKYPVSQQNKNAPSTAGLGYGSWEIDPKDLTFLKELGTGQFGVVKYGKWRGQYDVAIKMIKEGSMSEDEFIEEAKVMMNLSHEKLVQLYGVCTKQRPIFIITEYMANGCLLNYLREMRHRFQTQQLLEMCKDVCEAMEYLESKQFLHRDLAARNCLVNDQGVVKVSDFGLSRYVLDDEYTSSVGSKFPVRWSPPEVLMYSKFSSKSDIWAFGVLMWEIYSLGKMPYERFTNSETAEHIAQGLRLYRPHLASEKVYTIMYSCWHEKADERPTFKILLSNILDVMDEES

Row | Structure (SMILES) | IC50 (E compounds, Table 17) [µM] | IC50 (Table 13, A compounds) [µM]
1 | C[C@@H]1[C@H](NC(=O)c2ccc(C3CC3)cc2)CCCN1c1cnc(C(N)=O)c(Nc2cc(CN3CCCCC3)ns2)n1 [Example A-181, 5-[(2R,3R)-3-(4-cyclopropylbenzamido)-2-methylpiperidin-1-yl]-3-{[3-(piperidin-1-ylmethyl)-1,2-thiazol-5-yl]amino}pyrazine-2-carboxamide] | – | ≤ 0.01
2 | C[C@@H]1[C@H](NC(=O)c2ccc(C3CC3)cc2F)CCCN1c1cnc(C(N)=O)c(Nc2ccc(C3(C)CCN(C4CC4)CC3)cc2)n1 [Example A-174, 5-[(2R,3R)-3-(4-cyclopropyl-2-fluorobenzamido)-2-methylpiperidin-1-yl]-3-{[4-(1-cyclopropyl-4-methylpiperidin-4-yl)phenyl]amino}pyrazine-2-carboxamide] | – | ≤ 0.01
3 | Cn1cc(Nc2nc(N3C[C@H](NC(=O)c4ccc(C5CC5)cc4)CC(F)(F)C3)cnc2C(N)=O)cn1 [Example A-188, (R)-5-(5-(4-cyclopropylbenzamido)-3,3-difluoropiperidin-1-yl)-3-(1-methyl-1H-pyrazol-4-ylamino)pyrazine-2-carboxamide] | – | ≤ 0.01
4 | C=CC(=O)N[C@@H]1CCCN(c2nnc(C(N)=O)c(Nc3ccc(Cl)cc3)n2)[C@@H]1C [Example E-5, 3-((2R,3R)-3-acrylamido-2-methylpiperidin-1-yl)-5-((4-chlorophenyl)amino)-1,2,4-triazine-6-carboxamide] | ≤ 0.01 | –
5 | CN(C)C(=O)N[C@@H]1CCCN(c2cnc(C(N)=O)c(Nc3ccc(C4(C)CCN(C5CCCC5)CC4)cc3)n2)[C@@H]1CO [Example A-101, 3-{[4-(1-cyclopentyl-4-methylpiperidin-4-yl)phenyl]amino}-5-[(2S,3R)-3-[(dimethylcarbamoyl)amino]-2-(hydroxymethyl)piperidin-1-yl]pyrazine-2-carboxamide] | – | ≤ 0.01
6 | CN1CCN(c2ccc(Nc3nc(N4CCC[C@@H](n5ccc6cc(C7CC7)cc(F)c6c5=O)C4)cnc3C(N)=O)cc2)CC1 [Example A-133, 5-[(3R)-3-(6-cyclo-propyl-8-fluoro-1-oxo-1,2-dihydroisoquinolin-2-yl)piperidin-1-yl]-3-{[4-(4-methylpiperazin-1-yl)phenyl]amino}pyrazine-2-carboxamide] | – | ≤ 0.01
7 | Cn1cc(Nc2nc(N3CCC[C@@H](n4ccc5cc(C6CC6)ccc5c4=O)C3)cnc2C(N)=O)cn1 [Example A-167, 5-[(3R)-3-(6-cyclopropyl-1-oxo-1,2-dihydroisoquinolin-2-yl)piperidin-1-yl]-3-[(1-methyl-1H-pyrazol-4-yl)amino]pyrazine-2-carboxamide] | – | ≤ 0.01
8 | Cc1cc(Nc2nc(N3CCC[C@@H](n4ccc5cc(C6CC6)ccc5c4=O)C3)cnc2C(N)=O)sn1 [Example A-107, 5-[(3R)-3-(6-cyclopropyl-1-oxo-1,2-dihydroisoquinolin-2-yl)piperidin-1-yl]-3-[(3-methyl-1,2-thiazol-5-yl)amino]pyrazine-2-carboxamide] | – | ≤ 0.01
9 | C[C@@H]1[C@H](NC(=O)c2ccc(C3CC3)cc2F)CCCN1c1cnc(C(N)=O)c(Nc2ccc(C3(C)CCN(C4CCCC4)CC3)cc2)n1 [Example A-121, 3-{[4-(1-cyclopentyl-4-methylpiperidin-4-yl)phenyl]amino}-5-[(2R,3R)-3-(4-cyclopropyl-2-fluorobenzamido)-2-methylpiperidin-1-yl]pyrazine-2-carboxamide] | – | ≤ 0.01
10 | C=CC(=O)N[C@@H]1CCCN(c2nnc(C(N)=O)c(Nc3ccc(C4(C)CCN(C5CC5)CC4)cc3)n2)[C@@H]1C [Example E-2, 3-((2R,3R)-3-acrylamido-2-methylpiperidin-1-yl)-5-((4-(1-cyclopropyl-4-methylpiperidin-4-yl)phenyl)amino)-1,2,4-triazine-6-carboxamide] | ≤ 0.01 | –
11 | C[C@@H]1[C@H](NC(=O)c2ccc(C3CC3)cc2F)CCCN1c1cnc(C(N)=O)c(Nc2ccc(N3CCN(C)CC3)nc2)n1 [Example A-177, 5-[(2R,3R)-3-(4-cyclopropyl-2-fluorobenzamido)-2-methylpiperidin-1-yl]-3-{[6-(4-methylpiperazin-1-yl)pyridin-3-yl]amino}pyrazine-2-caoxamide] | – | ≤ 0.01
12 | C[C@@H]1[C@H](NC(=O)c2ccc(C(C)(C)C)cc2)CCCN1c1cnc(C(N)=O)c(Nc2ccc(N3CCN(C)CC3)cc2)n1 [Example A-184, 5-[(2R,3R)-3-(4-tert-butylbenzamido)-2-methylpiperidin-1-yl]-3-{[4-(4-methylpiperazin-1-yl)phenyl]amino}pyrazine-2-carboxamide] | – | ≤ 0.01
13 | C[C@@H]1[C@H](NC(=O)c2ccc(C3CC3)cc2F)CCCN1c1cnc(C(N)=O)c(Nc2ccc(C(=O)N3CCN(C)CC3)cc2)n1 [Example A-122, 5-[(2R,3R)-3-(4-cyclopropyl-2-fluorobenzamido)-2-methylpiperidin-1-yl]-3-{[4-(4-methylpiperazine-1-carbonyl)phenyl]amino}pyr-azine-2-carboxamide] | – | ≤ 0.01
14 | C[C@@H]1[C@H](NC(=O)c2ccc(C3CC3)cc2F)CCCN1c1cnc(C(N)=O)c(Nc2ccc(N3CCN(C)CC3)c(F)c2)n1 [Example A-171, 5-[(2R,3R)-3-(4-cyclopropyl-2-fluorobenzamido)-2-methylpiperidin-1-yl]-3-{[3-fluoro-4-(4-methylpiperazin-1-yl)phenyl]amino}pyrazine-2-carboxamide] | – | ≤ 0.01
15 | COCCn1cc(Nc2nc(N3CCC[C@@H](NC(=O)c4ccc(C5CC5)cc4)[C@H]3C)cnc2C(N)=O)cn1 [Example A-186, 5-((2R,3R)-3-(4-cyclopropylbenzamido)-2-methylpiperidin-1-yl)-3-(1-(2-methoxylethyl)-1H-pyrazol-4-ylamino)pyrazine-2-carboxamide] | – | ≤ 0.01
16 | C[C@@H]1[C@H](NC(=O)c2ccc(C3CC3)cc2F)CCCN1c1cnc(C(N)=O)c(Nc2ccc(S(=O)(=O)N3CCN(C)CC3)cc2)n1 [Example A-156, 5-[(2R,3R)-3-(4-cyclopropyl-2-fluorobenzamido)-2-methylpiperidin-1-yl]-3-({4-[(4-methylpiperazin-1-yl)sulfonyl]phenyl}amino)pyr-azine-2-carboxamide] | – | ≤ 0.01
17 | C[C@@H]1[C@H](NC(=O)c2ccc(C3CC3)cc2F)CCCN1c1cnc(C(N)=O)c(Nc2cnn(C)c2)n1 [Example A-110, 5-[(2R,3R)-3-(4-cyclopropyl-2-fluorobenzamido)-2-methylpiperidin-1-yl]-3-[(1-methyl-1H-pyrazol-4-yl)amino]pyrazine-2-carboxamide] | – | ≤ 0.01

Next, values leading:

Row | IC50 (E compounds, Table 17) [µM] | IC50 (Table 13, A compounds) [µM] | Structure (SMILES)
18 | 0.1 to 1 | – | Cn1cc(Nc2nc(N3CCC4CCN(C(=O)c5ccc(C6CC6)cc5)C4C3)cnc2C(N)=O)cn1 (stereo not shown) [Example E-141, 5-(1-(4-cyclopropylbenzoyl)octahydro-6H-pyrrolo[2,3-c]pyridin-6-yl)-3-((1-methyl-3H-pyrazol-4-yl)amino)pyrazine-2-carboxamide]
19 | ≤ 0.01 | – | C[C@@H]1[C@H](NC(=O)c2ccc(C(=O)N(C)C)cc2)CCCN1c1cnc(C(N)=O)c(Nc2cnn(C)c2)n1 [Example E-138, N1-((2R,3R)-1-(5-carbamoyl-6-((1-methyl-1H-pyrazol-4-yl)amino)pyrazin-2-yl)-2-methylpiperidin-3-yl)-N4,N4-dimethylterephthalamide]
20 | ≤ 0.01 | – | C=CC(=O)N1CCC[C@@H](N(C)c2cnc(C(N)=O)c(Nc3ccc(C(C)C)cc3)n2)C1 [Example E-102, (R)-5-((1-acryloylpiperidin-3-yl)(methyl)amino)-3-(4-isopropylphenylamino) pyrazine-2-carboxamide]
21 | ≤ 0.01 | – | C[C@@H]1[C@H](NC(=O)c2ccc(C3CC3)cc2)CCCN1c1cnc(C(N)=O)c(Nc2ccc(N3CCN(C4CCCC4)C[C@@H]3C)cc2)n1 [Example E-137, 3-((4-((S)-4-cyclopentyl-2-methylpiperazin-1-yl)phenyl)amino)-5-((2R,3R)-3-(4-cyclopropylbenzamido)-2-methyipiperidin-1-yl)pyrazine-2-carboxamide]
22 | ≤ 0.01 | – | C=CC(=O)N1CC[C@@H](N(C)c2nnc(C(N)=O)c(Nc3ccc(C(C)C)cc3)n2)C1 [Example E-26, (R)-3-((1-acryloylpyrrolidin-3-yl)(methyl)amino)-5-(4-isopropylphenylamino)-1,2,4-triazine-6-carboxamide]
23 | ≤ 0.01 | – | C=CC(=O)N[C@@H]1CCCN(c2cnc(C(N)=O)c(Nc3ccc(C4CCN(C5CC5)CC4)cc3)n2)[C@@H]1C [Example E-93, 5-((2R,3R)-3-acrylamido-2-methylpiperidin-1-yl)-3-(4-(1-cyclopropylpiperidin-4-yl)phenylamino)pyrazine-2-carboxamide]
24 | ≤ 0.01 | – | C=CC(=O)N1CC[C@@H](N(C)c2nnc(C(N)=O)c(Nc3cc(C)ns3)n2)C1 [Example E-12, (R)-3-((1-acryloylpyrrolidin-3-yl)(methyl)amino)-5-(3-methylisothiazol-5-ylamino)-1,2,4-triazine-6-carboxamide]
25 | ≤ 0.01 | – | C=CC(=O)N1CCC[C@@H](Nc2nnc(C(N)=O)c(Nc3ccc(C4CCN(C(=O)CC)CC4)cc3)n2)C1 [Example E-45, (R)-3-(1-acryloylpiperidin-3-ylamino)-5-(4-(1-propionylpiperidin-4-yl)phenylamino)-1,2,4-triazine-6-carboxamide]
26 | ≤ 0.01 | – | C[C@@H]1[C@H](NC(=O)c2ccc3oc(C4CC4)nc3c2)CCCN1c1cnc(C(N)=O)c(Nc2cnn(C)c2)n1 [Example E-139, N-((2R,3R)-1-(5-carbamoyl-6-((1-methyl-1H-pyrazol-4-yl)amino)pyrazin-2-yl)-2-methylpiperidin-3-yl)-2-cyclopropylbenzo[d] oxazole-5-carboxamide]
27 | 0.1 to 1 | – | CC(C)c1ccc(Nc2nc(N3CCC[C@@H](N4CCC[C@@H](Nc5cc(Cl)cc(C(F)(F)F)c5)C4=O)C3)nnc2C(N)=O)cc1 [Example E-128, 3-((3R,3′R)-3-((3-chloro-5-(trifluoromethyl)phenyl)amino)-2-oxo-[1,3′-bipiperidin]-1′-yl)-5-((4-isopropylphenyl)amino)-1,2,4-triazine-6-carboxamide]
28 | 0.1 to 1 | – | Cn1cc(Nc2nc(N3CCCC(C)(NC(=O)c4ccc(C5CC5)cc4)C3)cnc2C(N)=O)cn1 (stereo not shown) [Example E-150, 5-(3-(4-cyclopropylbenzamido)-3-methylpiperidin-1-yl)-3-((1-methyl-1H-pyrazol-4-yl)amino)pyrazine-2-carboxamide]

Source: patent US20210070748A1, “INHIBITORS OF BRUTONS TYROSINE KINASE” (Pharmacyclics LLC, priority 2015, published 2021)
